Data set [1] has as its system human conjunctival epithelial cells (HCE). The data set can be described thus: Cell growth and vitality of HCE cells (trypan blue exclusion test and MTT assay). Format: cell-based. The source says:
In vitro tests on human conjunctival epithelial cells (HCE) for the experimental verification of the cytoprotective and antioxidant activity of beta caryophyllene (BCP) on the oxidative damage induced by anti-glaucoma medicines (AD). Characterization of the cytoprotective effects of beta-caryophyllene (BCP) on the human conjunctival epithelial cells exposed to oxidative and mitochondrial stress. This stress mimics the irritant and inflammatory action of hypotonizing ophthalmic medicines on the external structures of the human eye.
The HCE cells were exposed for 24 and 48 hours with increasing concentrations of BRIM (from 0.25 up to 4 mg/mL), DZL (from 0.086 up to 0.43%) and TFP (from 0.9 up to 30 µg/mL), alone and in combination with various concentrations of BCP (from 1.25 up to 40 µM), and the cell growth and vitality were evaluated respectively using the trypan blue exclusion test and the MTT assay. […] The IC50 ([…]) values for BRIM and DZL on their own are given respectively in the accompanying Figures 1 and 2. The in vitro interactions between BCP and BRIM or DZL, as illustrated in Figures 3A and B, were determined by the ÿE model of non-parametric response surface analysis. […] In particular, the most advantageous combinations were 10 µM BCP with 2 mg/ml BRIM and 2.5 µM BCP with 0.25% DZL. Of the combinations selected, only the combination 10 µM BCP and 2 mg/mL BRIM, which reflects the commercial formulation of the eye drops for treatment, was studied further. All the statistical comparisons were performed with respect to vCTR (vehicle control).

Data set [2] relates to HCE cells. As to the kind of experiment: Apoptosis, cytofluorimetric analysis. The class given is cell-based, human. To be noted: BRIM/BCP with respect to BRIM. As for the experimental part:
Figure 5 is a bar graph showing the percentage values of apoptotic cells (early and late) and necrotic cells in experimental groups exposed for 48 hours to BRIM and BCP.

Data set [3] relates to HCE cells. The settings on record: 24 hours, vs. vCTR.
Experimental: After 24 hours of treatment, intracellular production of ROS was analyzed using DCHF-DA with respect to vCTR. The values shown represent the average ± SE of the results of three independent experiments; one-way ANOVA followed by the Holm-Šidák method; *p<0.05 with respect to vCTR; p<0.05 BRIM/BCP with respect to BRIM dyeing with fluorescent dye. The values express the intensity of the fluorescence (Arbitrary Units, AU) and represent the average ± SE of the results of three independent experiments; one-way ANOVA in the rows; *p<0.05 with respect to vCTR.
The subject of data set [4] is HCE cells. To be noted: 3 - 24 hours, any analyzed moment, JC-1 dye.
Experimental: After the treatments, the ÿÿm was analyzed using JC-1 dye.
Measurements of mitochondrial activity, performed by means of experiments over time (3 - 24 hours), were evaluated by means of coloring with JC-1 dye.
In data set [5] the test system is HCE cells. To be noted: 48 hours of incubation. As for the experimental part:
The distribution of cell cycle phases is shown using PI dyeing and analyzed using flow cytometry. The bar charts show the percentage of cells in each phase and represent the average ± SE of the results of three independent experiments; one-way ANOVA followed by Bonferroni's t-test; *p<0.05 with respect to vCTR.
The cells were treated for 24 hours and 48 hours, and cytofluorimetric analyses of the cell cycle phase were performed for the distribution (Figure 4) and the apoptosis (Figure 5).

Structures can show the parent of a compound that is named as a salt.

As for `CC(C)OC(=O)CCC/C=C\C[C@@H]1[C@@H](/C=C/C(F)(F)COc2ccccc2)[C@H](O)C[C@@H]1O` [TFP, tafluprost], in data set [1] (HCE cells, 24 and 48 hours, up to concentrations of 30 µg/mL), the cytotoxic effects result is listed as “no cytotoxic effects”.
For `C=C1CC/C=C(\C)CC[C@@H]2[C@@H]1CC2(C)C` [BCP, (1R,4E,9S)-4,11,11-Trimethyl-8-methylidenebicyclo[7.2.0]undec-4-ene], the “protective effects of BCP in the cells treated with BRIM and DZL” value in data set [1] (HCE cells, 48 hours of incubation, BCP from 1.25 up to 40 µM) was “Significant protective effects”. Besides, the “most advantageous combination, BCP concentration with BRIM” value in data set [1] (with 2 mg/ml BRIM, non-parametric response surface analysis) is listed as 10 µM. The “most advantageous combination, BCP concentration with DZL” value in data set [1] (with 0.25% DZL, non-parametric response surface analysis) is given as 2.5 µM. Further, in data set [2] (24 and 48 hours), the “early apoptosis reduced (apoptosis induced by BRIM)” value is given as “approximately 35%”. For the same molecule, the “late apoptosis decrease (apoptosis induced by BRIM)” value in data set [2] (48 hours) was “approximately 15%”.
With `Brc1c(NC2=NCCN2)ccc2nccnc12` [BRIM, Brimonidine tartrate], in data set [3], the “increase in ROS production” value is listed as “approximately 30%”. For the same molecule, the “mitochondrial membrane potential (ÿÿm)” value in data set [4] is listed as “marked mitochondrial depolarization”. Further, the S phase entry in data set [5] is “significant decreases”. Also, the “percentage of cells in the G2/M phase” value in data set [5] (vehicle control 12%, 2 mg/mL BRIM, 10 µM BCP) is on record as 33.73%.

The values above are taken from patent EP4652992A1, “OPHTHALMIC COMPOSITION FOR PREVENTING AND TREATING CONJUNCTIVA EPITHELIUM DAMAGE AND ASSOCIATED DISCOMFORT CAUSED BY HYPOTONIZING FORMULATIONS” (FB Vision S.p.A., priority 2024, dated 2025).
